Consider 23 molecules from patent US20080249130A1, “Gut microsomal triglyceride transport protein inhibitors” (Sirtris Pharmaceuticals, Inc., priority 2007, published 2008).

pIC50: −log10 of the molar value. Values joined by “and” are separate entries in the source; they are usually repeats but may differ in a detail not shown here. Equal entries are not always repeated.

Assay [1] has as its system secretion of ApoB by HepG2 cells. Description: ApoB secretion inhibition assay in HepG2 cells (ApoB ELISA). It counts as cell-based, human. Conditions: Homo sapiens, HepG2, Table 6, assay of Example 2; read-out: IC50 ApoB Assay. An outline of the steps:
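HepG2 cells were serum-starved for 24 h, then treated for 24 h in DMEM with 1% BSA, 0.3 mM BSA-complexed oleic acid and 0.1% DMSO. Secreted ApoB in conditioned medium was measured by sandwich ELISA (A450). Viability was checked by AlamarBlue fluorescence.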

Assay [2] has as its target MTP (Homo sapiens, UniProt P55157). As to the kind of experiment: In vitro inhibition of MTP, triacylglycerol transfer assay with donor and acceptor liposomes (fluorescence). Conditions: Table 6, assay of Example 3; read-out: IC50 Enzyme Assay. Type of assay: biochemical. Here is the method:
This assay is commercially available (Cat. #D400, Chylos Inc., New York). Liposomes are pipetted in 5 μl aliquots into the wells of a black fluorescence microtiter plate, followed by addition of 5 μl of water and an incubation of 2-5 min to allow the samples to equilibrate to rt. Next, 5 μl of compound dissolved in DMSO is added to the vesicles. The reaction is initated by the addition of 5 μl MTP, followed by incubation for 30 min at room temperature. […] Time of incubation can be increased to measure low activity in different samples. In such situations, samples are prepared just prior to measuring fluorescence units. For this purpose, isopropanol is added to substrate vesicles about 5 min prior to fluorescence measurement as the fluorescence readings in isopropanol decrease with time.

Sequence of MTP (P55157 19-894, species assumed): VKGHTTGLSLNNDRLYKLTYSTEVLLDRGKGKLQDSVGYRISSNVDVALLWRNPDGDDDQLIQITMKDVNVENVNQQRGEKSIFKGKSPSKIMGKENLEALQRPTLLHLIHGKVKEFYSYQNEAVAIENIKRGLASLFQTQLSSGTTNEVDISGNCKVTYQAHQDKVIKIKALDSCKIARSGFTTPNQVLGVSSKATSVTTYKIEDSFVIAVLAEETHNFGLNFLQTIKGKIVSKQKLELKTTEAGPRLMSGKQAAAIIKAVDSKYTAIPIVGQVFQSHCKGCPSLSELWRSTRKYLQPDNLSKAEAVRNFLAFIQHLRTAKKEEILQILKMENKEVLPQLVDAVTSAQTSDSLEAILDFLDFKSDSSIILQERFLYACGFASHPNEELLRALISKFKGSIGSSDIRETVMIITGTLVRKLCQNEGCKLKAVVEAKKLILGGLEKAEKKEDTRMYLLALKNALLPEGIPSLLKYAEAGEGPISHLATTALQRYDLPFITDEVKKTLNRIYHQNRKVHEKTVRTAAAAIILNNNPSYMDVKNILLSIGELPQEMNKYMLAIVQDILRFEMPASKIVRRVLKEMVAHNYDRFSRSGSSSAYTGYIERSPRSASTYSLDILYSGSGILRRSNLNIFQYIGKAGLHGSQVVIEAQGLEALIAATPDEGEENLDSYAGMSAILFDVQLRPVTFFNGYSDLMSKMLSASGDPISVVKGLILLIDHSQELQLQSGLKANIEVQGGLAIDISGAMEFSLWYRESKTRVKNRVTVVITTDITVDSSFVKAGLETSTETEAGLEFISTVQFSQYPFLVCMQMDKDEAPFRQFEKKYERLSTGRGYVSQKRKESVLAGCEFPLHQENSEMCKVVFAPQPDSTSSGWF
Sequence of MTP (P07237 18-508 partner, species assumed): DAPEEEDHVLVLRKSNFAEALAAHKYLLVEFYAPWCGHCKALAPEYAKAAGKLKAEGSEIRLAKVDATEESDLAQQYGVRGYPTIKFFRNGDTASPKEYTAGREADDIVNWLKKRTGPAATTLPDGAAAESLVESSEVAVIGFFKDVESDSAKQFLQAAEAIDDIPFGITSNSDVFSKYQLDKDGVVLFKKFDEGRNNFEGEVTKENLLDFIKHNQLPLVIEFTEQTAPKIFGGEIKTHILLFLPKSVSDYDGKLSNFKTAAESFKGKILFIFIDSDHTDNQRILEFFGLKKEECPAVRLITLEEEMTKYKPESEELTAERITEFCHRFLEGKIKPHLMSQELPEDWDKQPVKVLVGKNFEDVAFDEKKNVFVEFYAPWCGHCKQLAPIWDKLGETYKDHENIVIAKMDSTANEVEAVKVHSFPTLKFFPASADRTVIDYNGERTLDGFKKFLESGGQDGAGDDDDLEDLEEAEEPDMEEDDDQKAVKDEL

Consider `CC(C)(C)c1ccc(-c2ccccc2C(=O)Nc2nc(-c3cccc(C(=O)N[C@H](C(=O)N4CCCC4)c4ccccc4)c3)cs2)cc1` [Compound 12, (S)-4′-tert-butyl-N-(4-(3-(2-oxo-1-phenyl-2-(pyrrolidin-1-yl)ethylcarbamoyl)phenyl)thiazol-2-yl)biphenyl-2-carboxamide], for which the pIC50 in assay [1] is 7.39; in assay [2] it was 8.70.

For the molecule `CC(C)(C)c1ccc(-c2ccccc2C(=O)Nc2ccc3nc(C(=O)N[C@H](C(=O)N4CCC(F)(F)C4)c4ccccc4)sc3c2)cc1` [Compound 14], the results for the pIC50 in assay [1] and in assay [2] were 8.06 and 8.28, respectively.

On to `CN(Cc1ccc(F)cc1)C(=O)[C@@H](NC(=O)c1nc2ccc(NC(=O)c3ccccc3-c3cn4ccsc4n3)cc2s1)c1ccccc1` [Compound 24, (S)—N-(2-((4-fluorobenzyl)(methyl)amino)-2-oxo-1-phenylethyl)-6-(2-(imidazo[2,1-b]thiazol-6-yl)benzamido)benzo[d]thiazole-2-carboxamide], for which the results for the pIC50 in assay [1] and in assay [2] were 7.63 and 7.82, respectively.

For `CN(Cc1ccc(F)cc1)C(=O)[C@@H](NC(=O)c1nc2ccc(NC(=O)c3ccccc3-n3cccc3)cc2s1)c1ccccc1` [Compound 30], the pIC50 in assay [1] is 7.51; in assay [2], 7.35.

As for `CN(Cc1ccc(F)cc1)C(=O)[C@@H](NC(=O)c1nc2ccc(NC(=O)c3ccccc3-c3ccc(C(F)(F)F)cc3)cc2s1)c1ccccc1` [Compound 32], the negative logarithm of the IC50 (pIC50) was 7.76 in assay [1] and 6.84 in assay [2].

`CN(Cc1ccc(F)cc1)C(=O)[C@@H](NC(=O)c1cn2cc(NC(=O)c3ccccc3-c3ccc(C(C)(C)C)cc3)ccc2n1)c1ccccc1` [Compound 33, (S)-6-(4′-tert-butylbiphenyl-2-ylcarboxamido)-N-(2-((4-fluorobenzyl)(methyl)amino)-2-oxo-1-phenylethyl)imidazo[1,2-a]pyridine-2-carboxamide]: the negative logarithm of the IC50 (pIC50) was 8.19 in assay [1] and 8.15 in assay [2].

On to `CC(C)(C)c1ccc(-c2ccccc2C(=O)Nc2nc(-c3ccc(C(=O)N[C@H](C(=O)N4CCCC4)c4ccccc4)cc3)cs2)cc1` [Compound 36, (S)-4′-tert-butyl-N-(4-(4-(2-oxo-1-phenyl-2-(pyrrolidin-1-yl)ethylcarbamoyl)phenyl)thiazol-2-yl)biphenyl-2-carboxamide], for which the pIC50 in assay [1] was 8.17; in assay [2], 8.24.

On to `CN(Cc1ccc(F)cc1)C(=O)[C@@H](NC(=O)c1nc2ccc(NC(=O)c3ccccc3-c3csc(-c4ccccc4)n3)cc2s1)c1ccccc1` [Compound 38], for which the pIC50 in assay [1] was 7.65; in assay [2], 7.62.

With `CN(Cc1ccc(F)cc1)C(=O)[C@@H](NC(=O)c1nc2ccc(NC(=O)c3ccccc3-c3cn4ccccc4n3)cc2s1)c1ccccc1` [Compound 40], the pIC50 was 8.38 in assay [1] and 7.89 in assay [2].

Consider `Cc1cccc(C(=O)Nc2ccc3nc(C(=O)N[C@H](C(=O)N(C)Cc4ccc(F)cc4)c4ccccc4)sc3c2)c1-c1ccc(C(C)(C)C)cc1` [Compound 41], for which the pIC50 in assay [1] was 8.54; in assay [2], 8.33.

For `Cc1cccc(C(=O)Nc2nc(-c3cccc(C(=O)N[C@H](C(=O)N4CCCC4)c4ccccc4)c3)cs2)c1-c1ccc(C(C)(C)C)cc1` [Compound 42], the results for the pIC50 in assay [1] and in assay [2] were 8.07 and 8.35, respectively.

`CC(C)c1ccc(-c2ccccc2C(=O)Nc2ccc3nc(C(=O)N[C@H](C(=O)N(C)Cc4ccc(F)cc4)c4ccccc4)sc3c2)cc1` [Compound 54, (S)—N-(2-((4-fluorobenzyl)(methyl)amino)-2-oxo-1-phenylethyl)-6-(4′-isopropylbiphenyl-2-ylcarboxamido)benzo[d]thiazole-2-carboxamide]: the pIC50 in assay [1] is 8.21; in assay [2], 7.82 and 7.95.

Regarding `CC(C)c1ccc(-c2ccccc2C(=O)Nc2ccc3nc(C(=O)N[C@H](C(=O)N4CCCC4)c4ccccc4)sc3c2)cc1` [Compound 55, (S)-6-(4′-isopropylbiphenyl-2-ylcarboxamido)-N-(2-oxo-1-phenyl-2-(pyrrolidin-1-yl)ethyl)benzo[d]thiazole-2-carboxamide], the pIC50 is 8.17 in assay [1]; 8.09 and 8.41 in assay [2].

Consider `Cc1csc2nc(-c3ccccc3C(=O)Nc3ccc4nc(C(=O)N[C@H](C(=O)N(C)Cc5ccc(F)cc5)c5ccccc5)sc4c3)cn12` [Compound 64, (S)—N-(2-((4-fluorobenzyl)(methyl)amino)-2-oxo-1-phenylethyl)-6-(2-(3-methylimidazo[2,1-b]thiazol-6-yl)benzamido)benzo[d]thiazole-2-carboxamide], for which the results for the pIC50 in assay [1] and in assay [2] were 8.16 and 7.02, respectively.

`CN(Cc1ccc(F)cc1)C(=O)[C@@H](NC(=O)c1nc2ccc(NC(=O)c3ccccc3-c3nc(C(C)(C)C)cs3)cc2s1)c1ccccc1` [Compound 66, (S)-6-(2-(4-tert-butylthiazol-2-yl)benzamido)-N-(2-((4-fluorobenzyl)(methyl)amino)-2-oxo-1-phenylethyl)benzo[d]thiazole-2-carboxamide]: the pIC50 in assay [1] is 8.40; in assay [2], 8.34.

With `CC(C)(C)c1ccc(-c2ccccc2C(=O)NC23CCC(C(=O)N[C@H](C(=O)N4CCCC4)c4ccccc4)(CC2)CC3)cc1` [Compound 67, (S)-4-(4′-tert-butylbiphenyl-2-ylcarboxamido)-N-(2-oxo-1-phenyl-2-(pyrrolidin-1-yl)ethyl)bicyclo[2.2.2]octane-1-carboxamide], the pIC50 in assay [1] was 8.74; in assay [2] it was 8.62.

As to `CN(Cc1ccc(F)cc1)C(=O)[C@@H](NC(=O)C12CCC(NC(=O)c3ccccc3-c3ccc(C(C)(C)C)cc3)(CC1)CC2)c1ccccc1` [Compound 68, (S)-4-(4′-tert-butylbiphenyl-2-ylcarboxamido)-N-(2-((4-fluorobenzyl)(methyl)amino)-2-oxo-1-phenylethyl)bicyclo[2.2.2]octane-1-carboxamide], the results for the pIC50 in assay [1] and in assay [2] were 8.25 and 8.00, respectively.

Turning to `CCCN(C)C(=O)[C@@H](NC(=O)C12CCC(CNC(=O)c3cccc(C)c3-c3ccc(C(C)(C)C)cc3)(CC1)CC2)c1ccccc1` [Compound 73], the pIC50 in assay [1] was 7.93; in assay [2] it was 8.46.

Take `Cc1cccc(C(=O)NCC23CCC(C(=O)N[C@H](C(=O)N(C)Cc4ccc(F)cc4)c4ccccc4)(CC2)CC3)c1-c1ccc(C(C)(C)C)cc1` [Compound 75]: the figures for the pIC50 in assay [1] and in assay [2] were 8.23 and 7.25, respectively.

For `COc1cccc(C(=O)Nc2ccc3nc(C(=O)N[C@H](C(=O)N4CCCC4)c4ccccc4)sc3c2)c1-c1ccc(C(C)(C)C)cc1` [Compound 77], the pIC50 was 8.92 in assay [1] and 8.42 in assay [2].

In the case of `COc1cccc(C(=O)Nc2ccc3nc(C(=O)N[C@H](C(=O)N(C)Cc4ccc(F)cc4)c4ccccc4)sc3c2)c1-c1ccc(C(C)(C)C)cc1` [Compound 78], the negative-log IC50 (pIC50) in assay [1] was 8.62; in assay [2], 7.69 and 8.10.

With `COc1cccc(C(=O)Nc2ccc3nc(C(=O)N[C@H](C(=O)N4CCCC4)c4ccccc4)sc3c2)c1-c1ccc(C(F)(F)F)cc1` [Compound 79], the pIC50 in assay [1] was 8.57; in assay [2], 8.51.

For `Cc1cccc(C(=O)Nc2nc(-c3ccc(C(=O)N[C@H](C(=O)N4CCCC4)c4ccccc4)cc3)cs2)c1-c1ccc(C(C)(C)C)cc1` [Compound 83], the pIC50 is 7.88 in assay [1] and 7.99 in assay [2].

The pIC50 is −log10 of the IC50, conventionally taken in molar units.
